Test results published in US20260020569A1, “PESTICIDALLY ACTIVE THIOSEMICARBAZONE COMPOUNDS” (BASF SE, priority 2021, published 2026).

How the values were obtained:
Format in all cases: in vivo
[1] = system: Silverleaf whitefly (Bemisia argentifolii) (adults); assay: Action on silverleaf whitefly (Bemisia argentifolii) adults on sprayed cotton plants; details: 72 h, 3 days after treatment, read-out: mortality in comparison with untreated controls
Protocol: Example B4: Action on Silverleaf Whitefly (Bemisia argentifolii) (Adults)
(§1) The active compounds were formulated by a Tecan liquid handler in 100% cyclohexanone as a 10,000 ppm solution supplied in tubes. The 10,000 ppm solution was serially diluted in 100% cyclohexanone to make interim solutions. These served as stock solutions for which final dilutions were made by the Tecan in 50% acetone:50% water (v/v) into 5 or 10 ml glass vials. A non-ionic surfactant (Kinetic®) was included in the solution at a volume of 0.01% (v/v). The vials were then inserted into an automated electrostatic sprayer equipped with an atomizing nozzle for application to plants/insects.
Cotton plants at the cotyledon stage (one plant per pot) were sprayed by an automated electrostatic plant sprayer equipped with an atomizing spray nozzle. The plants were dried in the sprayer fume hood and then removed from the sprayer. Each pot was placed into a plastic cup and about 10 to 12 whitefly adults (approximately 3-5 days old) were introduced. The insects were collected using an aspirator and a nontoxic Tygon® tubing connected to a barrier pipette tip. The tip, containing the collected insects, was then gently inserted into the soil containing the treated plant, allowing insects to crawl out of the tip to reach the foliage for feeding. Cups were covered with a reusable screened lid. Test plants were maintained in a growth room at about 25° C. and about 20-40% relative humidity for 3 days, avoiding direct exposure to fluorescent light (24 hour photoperiod) to prevent trapping of heat inside the cup. Mortality was assessed 3 days after treatment, compared to untreated control plants.

[2] = system: yellow fever mosquito (Aedes aegypti); assay: whole plant or invertebrate; details: 48 h, larval mortality visually assessed after 2 days, read-out: mortality in comparison with untreated controls
Protocol: Example B1: Action on Yellow Fever Mosquito (Aedes aegypti)
For evaluating control of yellow fever mosquito (Aedes aegypti) the test unit consisted of 96-well-microtiter plates containing 200 μl of tap water per well and 5-15 freshly hatched A. aegypti larvae.
The active compounds or mixtures were formulated using a solution containing 75% (v/v) water and 25% (v/v) DMSO. Different concentrations of formulated compounds or mixtures were sprayed onto the insect diet at 2.5 μl, using a custom built micro atomizer, at two replications. For experimental mixtures in these tests identical volumes of both mixing partners at the desired concentrations respectively, were mixed together.
After application, microtiter plates were incubated at 28±1° C., 80±5% RH for 2 days. Larval mortality was then visually assessed.

[3] = system: Southern armyworm (Spodoptera eridania), 2nd instar larvae; assay: Action on southern armyworm (Spodoptera eridania), 2nd instar larvae on sprayed lima bean plants; details: 96 h, 2nd instar larvae on lima bean plants, 4 days after treatment, read-out: mortality in comparison with untreated controls
Protocol: Example B7: Action on Southern Armyworm (Spodoptera eridania), 2nd Instar Larvae
as §1, with “into 10” for “into 5”, “or 20” for “or 10”, “A nonionic” for “A non-ionic”
Lima bean plants (variety Sieva) were grown 2 plants to a pot and selected for treatment at the 1st true leaf stage. Test solutions were sprayed onto the foliage by an automated electrostatic plant sprayer equipped with an atomizing spray nozzle. The plants were dried in the sprayer fume hood and then removed from the sprayer. Each pot was placed into perforated plastic bags with a zip closure. About 10 to 11 armyworm larvae were placed into the bag and the bags zipped closed. Test plants were maintained in a growth room at about 25° C. and about 20-40% relative humidity for 4 days, avoiding direct exposure to fluorescent light (24 hour photoperiod) to prevent trapping of heat inside the bags. Mortality and reduced feeding were assessed 4 days after treatment, compared to untreated control plants.

[4] = system: tobacco budworm (Heliothis virescens); assay: Action on tobacco budworm (Heliothis virescens), eggs on insect diet in microtiter plates; details: 120 h, egg and larval mortality after 5 days, read-out: mortality in comparison with untreated controls
Protocol: Example B5: Action on Tobacco Budworm (Heliothis virescens)
For evaluating control of tobacco budworm (Heliothis virescens) the test unit consisted of 96-well-microtiter plates containing an insect diet and 15-25 H. virescens eggs.
The compounds were formulated using a solution containing 75% v/v water and 25% v/v DMSO. Different concentrations of formulated compounds were sprayed onto the insect diet at 10 μl, using a custom-built micro atomizer, at two replications.
After application, microtiter plates were incubated at about 28+1° C. and about 80+5% relative humidity for 5 days. Egg and larval mortality were then visually assessed.

[5] = system: Orchid thrips (Dichromothrips corbetti); assay: Action on orchid thrips (Dichromothrips corbetti), floral-immersion technique; details: adult thrips, 72 hours after treatment, read-out: mortality in comparison with untreated controls
Protocol: Example B2: Action on Orchid Thrips (Dichromothrips corbetti)
Dichromothrips corbetti adults used for bioassay were obtained from a colony maintained continuously under laboratory conditions. For testing purposes, the test compound is diluted in a 1:1 mixture of acetone:water (vol:vol), plus Kinetic® HV at a rate of 0.01% v/v.
Thrips potency of each compound was evaluated by using a floral-immersion technique. All petals of individual, intact orchid flowers were dipped into treatment solution and allowed to dry in Petri dishes. Treated petals were placed into individual re-sealable plastic along with about 20 adult thrips. All test arenas were held under continuous light and a temperature of about 28° C. for duration of the assay. After 3 days, the numbers of live thrips were counted on each petal. The percent mortality was recorded 72 hours after treatment.

[6] = system: boll weevil (Anthonomus grandis); assay: Action on boll weevil (Anthonomus grandis), eggs on insect diet in microtiter plates; details: 120 h, egg and larval mortality after 5 days, read-out: mortality in comparison with untreated controls
Protocol: Example B3: Action on Boll Weevil (Anthonomus grandis)
For evaluating control of boll weevil (Anthonomus grandis) the test unit consisted of 96-well-microtiter plates containing an insect diet and 5-10 A. grandis eggs.
The compounds were formulated using a solution containing 75% (v/v) water and 25% (v/v) DMSO. Different concentrations of formulated compounds were sprayed onto the insect diet at 5 μl, using a custom built micro atomizer, at two replications.
After application, microtiter plates were incubated at about 25+1° C. and about 75+5% relative humidity for 5 days. Egg and larval mortality were then visually assessed.

[7] = system: Diamond back moth (Plutella xylostella); assay: Action on diamond back moth (Plutella xylostella), cabbage leaf dip; details: foliar, 3rd instar larvae on cabbage leaves, 72 hours after treatment, read-out: mortality in comparison with untreated controls
Protocol: Example B6: Action on Diamond Back Moth (Plutella xylostella)
The active compound is dissolved at the desired concentration in a mixture of 1:1 (v/v) distilled water:acetone. Surfactant (Kinetic® HV) is added at a rate of 0.01% (v/v). The test solution is prepared at the day of use.
Leaves of cabbage were dipped in test solution and air-dried. Treated leaves were placed in petri dishes lined with moist filter paper and inoculated with ten 3rd instar larvae. Mortality was recorded 72 hours after treatment. Feeding damages were also recorded using a scale of 0-100%.

Structure (SMILES)	mortality at 300 ppm [1]	mortality at 800 ppm [2]	mortality at 300 ppm [3]	mortality at 800 ppm [4]	mortality at 500 ppm [5]	mortality at 800 ppm [6]	mortality at 500 ppm [7]
COCCOCCOCCOC(=O)OCS/C(=N\N=C\c1ccc(-n2cc(NC(=O)c3ccc(OC(F)(F)F)cc3)c(C)n2)cc1)Nc1cc(C)ccc1C(C)C [Compound C-5, [(Z)—N-(2-isopropyl-5-methyl-phenyl)-N′-[(E)-[4-[3-methyl-4-[[4-(trifluoromethoxy)benzoyl]amino]pyrazol-1-yl]phenyl]methyleneamino]carbamimidoyl]sulfanylmethyl 2-[2-(2-methoxyethoxy)ethoxy]ethyl carbonate]	≥ 75%	≥ 50%	≥ 75%	≥ 75%	≥ 75%	≥ 75%	≥ 75%
Cc1ccc(C(C)C)c(N/C(=N/N=C/c2ccc(-n3cc(NC(=O)c4ccc(OC(F)(F)F)cc4)c(C)n3)cc2)SCOC(=O)C(C)C)c1 [Compound C-6, [(Z)—N-(2-isopropyl-5-methyl-phenyl)-N′-[(E)-[4-[3-methyl-4-[[4 (trifluoromethoxy)benzoyl]amino]pyrazol-1-yl]phenyl]methyleneamino]carbamimidoyl]sulfanylmethyl 2-methylpropanoate]	–	≥ 50%	≥ 75%	≥ 75%	≥ 75%	≥ 75%	≥ 75%
Cc1ccc(C(C)C)c(N/C(=N/N=C/c2ccc(-n3cc(NC(=O)c4ccc(OC(F)(F)F)cc4)c(C)n3)cc2)SCOC(=O)N2CCOCC2)c1 [Compound C-10, [(Z)—N-(2-isopropyl-5-methyl-phenyl)-N′-[(E)-[4-[3-methyl-4-[[4-(trifluoromethoxy)benzoyl]amino]pyrazol-1-yl]phenyl]methyleneamino]carbamimidoyl]sulfanylmethyl morpholine-4-carboxylate]	–	–	≥ 75%	≥ 75%	≥ 75%	≥ 75%	≥ 75%
COCCOCCOCCOCCOC(=O)OCS/C(=N\N=C\c1ccc(-n2cc(NC(=O)c3ccc(OC(F)(F)F)cc3)c(C)n2)cc1C)Nc1cc(C)ccc1C(C)C [Compound C-15, [(Z)—N-(2-isopropyl-5-methyl-phenyl)-N′-[(E)-[2-methyl-4-[3-methyl-4-[[4-(trifluoromethoxy)benzoyl]amino]pyrazol-1-yl]phenyl]methyleneamino]carbamimidoyl]sulfanylmethyl 2-[2-[2-(2-methoxyethoxy)ethoxy]ethoxy]ethyl carbonate]	≥ 75%	≥ 50%	≥ 75%	≥ 75%	≥ 75%	≥ 75%	≥ 75%
Cc1ccc(C(C)C)c(N/C(=N/N=C/c2ccc(-n3cc(NC(=O)c4ccc(OC(F)(F)F)cc4)c(C)n3)cc2C)SCOC(=O)C2CCCCC2)c1 [Compound C-21, [(Z)—N-(2-isopropyl-5-methyl-phenyl)-N′-[(E)-[2-methyl-4-[3-methyl-4-[[4-(trifluoromethoxy)benzoyl]amino]pyrazol-1-yl]phenyl]methyleneamino]carbamimidoyl]sulfanylmethyl cyclohexanecarboxylate]	≥ 75%	–	≥ 75%	≥ 75%	≥ 75%	≥ 75%	≥ 75%
Cc1ccc(C(C)C)c(N/C(=N/N=C/c2ccc(-n3cc(NC(=O)c4ccc(OC(F)(F)F)cc4)c(C)n3)cc2C)SCOC(=O)C2CC2)c1 [Compound C-22, [(Z)—N-(2-isopropyl-5-methyl-phenyl)-N′-[(E)-[2-methyl-4-[3-methyl-4-[[4-(trifluoromethoxy)benzoyl]amino]pyrazol-1-yl]phenyl]methyleneamino]carbamimidoyl]sulfanylmethyl cyclopropanecarboxylate]	–	≥ 50%	≥ 75%	≥ 75%	≥ 75%	≥ 75%	≥ 75%
COc1ccc(/C=C/C(=O)OCS/C(=N\N=C\c2ccc(-n3cc(NC(=O)c4ccc(OC(F)(F)F)cc4)c(C)n3)cc2C)Nc2cc(C)ccc2C(C)C)cc1 [Compound C-23, [(Z)—N-(2-isopropyl-5-methyl-phenyl)-N′-[(E)-[2-methyl-4-[3-methyl-4-[[4-(trifluoromethoxy)benzoyl]amino]pyrazol-1-yl]phenyl]methyleneamino]carbamimidoyl]sulfanylmethyl (E)-3-(4-methoxyphenyl)prop-2-enoate]	≥ 75%	–	≥ 75%	≥ 75%	≥ 75%	≥ 75%	≥ 75%
